Source: patent US20210221822A1, “TRICYCLIC DERIVATIVES INHIBITOR, PREPARATION METHOD, AND APPLICATIONS THEREOF” (Jiangsu Hansoh Pharmaceutical Group Co., Ltd., priority 2018, published 2021)
Like-named read-outs stand apart in the source and are kept apart here.

Legend:
PI3Kα = molecular target: T1, PI3Kα (Homo sapiens, UniProt P42336); assay: ADP-Glo lipid kinase assay, PI3Kα kinase activity; format: biochemical; conditions: for IC50: ADP-Glo, 0.1 nM enzyme, 120 min, 50 μM ATP; for Selectivity of PI3Kα vs PI3Kβ: ratio of IC50 PI3Kβ to IC50 PI3Kα; for Selectivity of PI3Kα vs PI3Kγ: ratio of IC50 PI3Kγ to IC50 PI3Kα; for Selectivity of PI3Kα vs PI3Kδ: ratio of IC50 PI3Kδ to IC50 PI3Kα
T1 construct: purchased Promega V1721
T1 sequence (P42336 whole entry): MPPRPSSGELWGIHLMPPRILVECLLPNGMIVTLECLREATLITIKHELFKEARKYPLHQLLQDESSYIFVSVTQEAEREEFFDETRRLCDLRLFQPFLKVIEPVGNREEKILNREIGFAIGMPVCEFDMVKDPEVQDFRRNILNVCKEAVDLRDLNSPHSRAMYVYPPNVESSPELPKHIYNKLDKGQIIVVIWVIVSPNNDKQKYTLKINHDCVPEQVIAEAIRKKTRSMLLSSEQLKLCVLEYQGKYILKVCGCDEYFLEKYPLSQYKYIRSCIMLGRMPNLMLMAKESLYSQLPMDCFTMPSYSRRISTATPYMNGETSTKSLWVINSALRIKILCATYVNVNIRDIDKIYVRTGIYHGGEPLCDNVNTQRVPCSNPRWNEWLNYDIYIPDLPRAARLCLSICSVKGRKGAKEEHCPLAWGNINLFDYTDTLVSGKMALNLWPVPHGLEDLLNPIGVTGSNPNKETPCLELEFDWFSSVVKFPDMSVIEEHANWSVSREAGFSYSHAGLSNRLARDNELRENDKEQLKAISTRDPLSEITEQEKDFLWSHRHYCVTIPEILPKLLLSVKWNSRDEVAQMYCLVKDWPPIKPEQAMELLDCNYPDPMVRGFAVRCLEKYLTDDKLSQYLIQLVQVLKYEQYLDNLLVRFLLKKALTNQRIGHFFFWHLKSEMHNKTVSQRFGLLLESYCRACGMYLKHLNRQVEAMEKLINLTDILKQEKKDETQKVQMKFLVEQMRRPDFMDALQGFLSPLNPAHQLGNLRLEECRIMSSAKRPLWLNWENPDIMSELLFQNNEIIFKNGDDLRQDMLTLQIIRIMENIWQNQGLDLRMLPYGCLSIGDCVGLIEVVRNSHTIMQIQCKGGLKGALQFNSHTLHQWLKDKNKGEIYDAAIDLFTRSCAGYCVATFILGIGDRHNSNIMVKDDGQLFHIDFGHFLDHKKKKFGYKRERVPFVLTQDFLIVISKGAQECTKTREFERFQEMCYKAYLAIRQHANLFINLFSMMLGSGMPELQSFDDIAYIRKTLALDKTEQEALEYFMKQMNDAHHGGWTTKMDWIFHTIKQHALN
T1 sequence (P27986 whole entry partner): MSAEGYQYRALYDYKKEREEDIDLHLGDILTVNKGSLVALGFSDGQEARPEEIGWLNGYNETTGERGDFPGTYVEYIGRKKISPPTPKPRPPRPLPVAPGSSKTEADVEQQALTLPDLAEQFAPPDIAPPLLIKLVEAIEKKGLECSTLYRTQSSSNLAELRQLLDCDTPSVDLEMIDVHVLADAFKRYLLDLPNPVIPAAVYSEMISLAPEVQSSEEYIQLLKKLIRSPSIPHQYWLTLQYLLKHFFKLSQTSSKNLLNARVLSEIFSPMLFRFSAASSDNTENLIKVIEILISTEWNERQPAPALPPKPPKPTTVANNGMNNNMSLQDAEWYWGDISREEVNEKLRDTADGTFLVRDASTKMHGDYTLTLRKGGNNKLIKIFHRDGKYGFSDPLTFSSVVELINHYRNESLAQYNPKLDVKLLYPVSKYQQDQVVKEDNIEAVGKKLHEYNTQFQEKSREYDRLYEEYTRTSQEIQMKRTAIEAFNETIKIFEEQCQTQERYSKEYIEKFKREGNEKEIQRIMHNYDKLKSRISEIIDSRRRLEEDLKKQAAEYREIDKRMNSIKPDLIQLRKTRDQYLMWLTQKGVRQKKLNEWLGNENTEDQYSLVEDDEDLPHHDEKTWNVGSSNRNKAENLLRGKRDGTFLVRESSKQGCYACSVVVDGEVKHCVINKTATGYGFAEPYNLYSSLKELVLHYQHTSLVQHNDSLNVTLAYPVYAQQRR
Method: (§1) Experimental method: Promega's ADP-Glo lipid kinase assay method (Promega #V9102) was applied in this experiment. Lipid kinase PI3Kα/β/γ/δ catalyzed the generation of ADP from ATP in the presence of the substrate PIP2: 3PS and ATP. The lipid kinase activity was characterized by measuring the ADP content in the reaction, and the half inhibitory concentration IC50 of the compound on inhibiting PI3Kα/β/γ/δ kinase activity was thus obtained.
(§2) The kinase reaction was carried out in a white 384-well plate (Perkin Elmer #6007299). 2 μL of the compound solution of different concentrations diluted with ddH2O containing 1% DMSO was added to each well. 2 μL of ddH2O containing 1% DMSO was added to the positive control well. 2 μL of 0.1-2 nM PI3K kinase solution diluted with 5× kinase buffer (HEPES 250 mM, MgCl2 15 mM, NaCl 250 mM, BSA 0.05%) was added to each well. 2 μL of 5× kinase buffer was added to the negative control well. 4 μL of 50 μM substrate PIP2: 3PS (Promega #V1701) formulated with 10× Dilution buffer and ddH2O was added to all wells. Finally, 2 μL of […] ATP solution diluted with water was added to start the reaction. After the reaction was carried out at room temperature for 90 to 120 minutes, 10 μL of ADP-Glo Reagent (containing 10 mM MgCl2) was added to each well, and reacted at room temperature for 60 minutes to remove excess ATP in the reaction. 20 μL of Kinase Detection Reagent was added to each well, and reacted at room temperature in the dark for 20 minutes. The chemiluminescence value was measured by the BioTek Synergy H1 microplate reader.
(§3) The percentage inhibition data of the compound-treated well was calculated through the positive control well (DMSO control well) and negative control well (no kinase added) on the plate {% inhibition rate=100−[(test compound value−negative control value)]/(positive control value−negative control value)×100}. The IC50 value was calculated by fitting the data of different concentrations and corresponding percentage inhibition rates to a four-parameter nonlinear logic formula with GraphPad prism.

PI3Kβ = molecular target: T2, PI3Kβ (Homo sapiens, UniProt P42338); assay: ADP-Glo lipid kinase assay, PI3Kβ kinase activity; format: biochemical; conditions: 0.4 nM enzyme, 90 min, 100 μM ATP
T2 construct: purchased Carna 11-102
T2 sequence (P42338 whole entry): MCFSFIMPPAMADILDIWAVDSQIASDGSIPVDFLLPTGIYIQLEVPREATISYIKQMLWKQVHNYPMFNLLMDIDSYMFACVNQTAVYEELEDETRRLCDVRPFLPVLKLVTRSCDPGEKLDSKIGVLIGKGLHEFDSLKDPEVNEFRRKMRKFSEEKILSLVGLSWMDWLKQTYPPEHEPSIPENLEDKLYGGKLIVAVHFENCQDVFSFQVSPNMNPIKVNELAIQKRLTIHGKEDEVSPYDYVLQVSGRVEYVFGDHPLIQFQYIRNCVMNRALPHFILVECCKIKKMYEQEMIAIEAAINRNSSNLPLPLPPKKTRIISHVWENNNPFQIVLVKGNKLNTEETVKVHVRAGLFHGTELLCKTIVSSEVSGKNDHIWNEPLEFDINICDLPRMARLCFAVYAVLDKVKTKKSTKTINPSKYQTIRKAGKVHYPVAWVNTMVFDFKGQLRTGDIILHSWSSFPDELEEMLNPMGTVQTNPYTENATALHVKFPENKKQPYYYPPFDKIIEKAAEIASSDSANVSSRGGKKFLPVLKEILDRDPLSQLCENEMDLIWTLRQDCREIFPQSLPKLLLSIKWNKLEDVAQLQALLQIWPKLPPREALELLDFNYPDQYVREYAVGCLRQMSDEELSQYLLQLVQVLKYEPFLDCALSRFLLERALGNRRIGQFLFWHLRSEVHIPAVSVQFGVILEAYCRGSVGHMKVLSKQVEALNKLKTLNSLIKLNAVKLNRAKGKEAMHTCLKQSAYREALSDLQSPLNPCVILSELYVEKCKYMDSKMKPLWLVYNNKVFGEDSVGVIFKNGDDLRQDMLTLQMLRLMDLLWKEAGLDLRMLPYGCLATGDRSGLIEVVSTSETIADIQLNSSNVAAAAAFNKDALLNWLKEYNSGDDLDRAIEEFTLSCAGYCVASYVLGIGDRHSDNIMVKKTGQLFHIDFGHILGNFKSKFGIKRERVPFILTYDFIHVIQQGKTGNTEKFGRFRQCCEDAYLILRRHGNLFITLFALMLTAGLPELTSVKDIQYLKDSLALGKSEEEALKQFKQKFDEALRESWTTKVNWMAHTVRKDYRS
T2 sequence (P27986 whole entry partner): as the sequence (P27986 whole entry partner) above
Method: as §1, §2, §3

PI3Kγ = molecular target: T3, PI3Kγ (Homo sapiens, UniProt P48736); assay: ADP-Glo lipid kinase assay, PI3Kγ kinase activity; format: biochemical; conditions: 0.4 nM enzyme, 120 min, 50 μM ATP
T3 construct: purchased Thermofisher PV4786
T3 sequence (P48736 whole entry): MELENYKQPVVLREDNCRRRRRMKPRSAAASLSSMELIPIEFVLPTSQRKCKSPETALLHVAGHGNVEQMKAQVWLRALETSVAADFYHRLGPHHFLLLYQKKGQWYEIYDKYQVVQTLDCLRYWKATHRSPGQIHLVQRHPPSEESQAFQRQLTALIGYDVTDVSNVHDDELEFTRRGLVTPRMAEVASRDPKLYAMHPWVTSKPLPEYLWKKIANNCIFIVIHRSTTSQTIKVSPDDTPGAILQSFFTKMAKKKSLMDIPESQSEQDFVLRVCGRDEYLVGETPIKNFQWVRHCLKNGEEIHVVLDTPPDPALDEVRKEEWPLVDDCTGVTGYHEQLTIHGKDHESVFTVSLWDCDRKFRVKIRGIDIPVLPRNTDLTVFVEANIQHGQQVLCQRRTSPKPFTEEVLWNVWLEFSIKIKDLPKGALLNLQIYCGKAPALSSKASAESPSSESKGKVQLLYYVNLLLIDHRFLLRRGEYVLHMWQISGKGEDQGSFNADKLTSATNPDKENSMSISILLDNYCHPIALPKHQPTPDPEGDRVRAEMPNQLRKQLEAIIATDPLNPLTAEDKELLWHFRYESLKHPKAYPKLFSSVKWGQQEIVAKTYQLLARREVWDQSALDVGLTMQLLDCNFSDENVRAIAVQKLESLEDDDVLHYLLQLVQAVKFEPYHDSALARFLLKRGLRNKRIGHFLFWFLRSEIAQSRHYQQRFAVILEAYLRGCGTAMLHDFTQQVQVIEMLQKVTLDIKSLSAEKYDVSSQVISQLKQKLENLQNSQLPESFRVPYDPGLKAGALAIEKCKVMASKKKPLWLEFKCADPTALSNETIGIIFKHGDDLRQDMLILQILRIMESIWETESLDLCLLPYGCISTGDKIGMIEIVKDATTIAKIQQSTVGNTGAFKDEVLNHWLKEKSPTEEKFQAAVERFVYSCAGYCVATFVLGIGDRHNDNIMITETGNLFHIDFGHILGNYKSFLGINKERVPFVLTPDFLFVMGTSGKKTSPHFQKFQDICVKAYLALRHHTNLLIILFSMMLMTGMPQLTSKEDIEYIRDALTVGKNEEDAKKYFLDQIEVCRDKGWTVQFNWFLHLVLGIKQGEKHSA
Method: as §1, §2, §3

PI3Kδ = molecular target: T4, PI3Kδ (Homo sapiens, UniProt O00329); assay: ADP-Glo lipid kinase assay, PI3Kδ kinase activity; format: biochemical; conditions: 0.1 nM enzyme, 90 min, 100 μM ATP
T4 construct: purchased Carna 11-103
T4 sequence (O00329 whole entry): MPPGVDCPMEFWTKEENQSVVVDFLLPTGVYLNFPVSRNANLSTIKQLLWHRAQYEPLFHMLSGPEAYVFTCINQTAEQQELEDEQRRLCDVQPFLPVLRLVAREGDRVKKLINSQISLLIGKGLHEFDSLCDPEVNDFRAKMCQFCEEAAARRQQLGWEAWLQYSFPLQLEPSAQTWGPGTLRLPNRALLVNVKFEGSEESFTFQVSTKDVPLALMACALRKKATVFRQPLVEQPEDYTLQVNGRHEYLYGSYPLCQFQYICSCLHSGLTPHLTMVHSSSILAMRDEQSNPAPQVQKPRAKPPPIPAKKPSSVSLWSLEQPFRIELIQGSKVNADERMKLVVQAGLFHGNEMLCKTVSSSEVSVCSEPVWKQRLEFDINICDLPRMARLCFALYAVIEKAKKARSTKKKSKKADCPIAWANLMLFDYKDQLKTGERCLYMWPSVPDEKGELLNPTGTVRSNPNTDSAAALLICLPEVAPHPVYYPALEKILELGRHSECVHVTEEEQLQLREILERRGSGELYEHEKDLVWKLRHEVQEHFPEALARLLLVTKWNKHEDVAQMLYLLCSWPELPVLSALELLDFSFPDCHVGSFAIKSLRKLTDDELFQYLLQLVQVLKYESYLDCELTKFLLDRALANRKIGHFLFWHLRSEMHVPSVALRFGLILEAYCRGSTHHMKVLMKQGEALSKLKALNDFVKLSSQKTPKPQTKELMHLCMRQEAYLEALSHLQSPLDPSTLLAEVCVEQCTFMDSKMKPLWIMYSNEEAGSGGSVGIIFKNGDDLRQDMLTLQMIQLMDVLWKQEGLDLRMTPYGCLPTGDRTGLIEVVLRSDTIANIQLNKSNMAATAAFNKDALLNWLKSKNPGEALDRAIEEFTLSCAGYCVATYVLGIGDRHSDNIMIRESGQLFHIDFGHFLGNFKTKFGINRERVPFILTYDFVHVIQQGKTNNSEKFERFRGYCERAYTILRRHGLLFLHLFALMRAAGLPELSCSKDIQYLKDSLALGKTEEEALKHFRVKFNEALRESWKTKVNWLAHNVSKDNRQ
T4 sequence (P27986 whole entry partner): as the sequence (P27986 whole entry partner) above
Method: as §1, §2, §3

[1] = Toxicity test of a 7-day repeatedly intragastric administration in SD rats; format: in vivo
Source text: (§4) 1) In the experiment, 112 rats (56 rats/sex) were divided into 14 groups by sex and body weight, wherein 70 rats were used for toxicology study (groups 1 to 7, 5 rats/sex/group) and 42 rats were used for toxicokinetics study (groups 8 to 14, 3 rats/sex/group).
2) As the vehicle control group, the animals in groups 1 and 8 were intragastrically administered 20% aqueous SBE-(3-CD (Captisol) solution.
(§5) 3) The animals in groups 2 and 9, groups 3 and 10, and groups 4 and 11 were intragastrically administered GDC-0077 at 10, 30 and 60 mg/kg, respectively.
(§6) 4) The animals in groups 5 and 12, groups 6 and 13, and groups 7 and 14 were intragastrically administered the compound of Example 51 at 10, 30 and 60 mg/kg, respectively.
(§7) 5) The animals were administered once a day for 7 consecutive days (the animals in groups 7 and 14 were administered for 6 consecutive days).
6) The administration volume was 10 mL/kg.
(§8) 7) During the experiment, items such as clinical observation, body weight, food intake, clinicopathological indicators (blood cell count, coagulation function, blood biochemistry), toxicokinetics and the like were studied.
8) All animals were euthanized on Day 8 (the animals in groups 7 and 14 were euthanized after administration on Day 6).
9) During the experiment, gross anatomy observation was carried out on animals in groups 1 to 7, animals in group 14 and dead animals (including animals in toxicokinetics study), and histopathological examination was carried out on abnormal tissues, gastrointestinal tissues (such as colon and cecum) and immune tissues (such as thymus).

[2] = Toxicokinetics in the 7-day repeated intragastric administration study in SD rats; format: in vivo, Sprague-Dawley (SD) rats; conditions: for AUC: Sprague-Dawley, rat, plasma, po, after the last administration, read-out: average system exposure AUC
Source text: Liquid chromatography−mass spectrometry (detector: API4000, electrospray source (ESI) positive ion mode, column: Agilent ZORBAX XDB-C18 (3.5 μm, 2.1×50 mm)), which was used for the biological analysis of plasma sample.
as §4, §5, §6, §7, §8

[3] = Pharmacokinetic (PK) assay in mice; format: in vivo; conditions: male, Balb/c, mouse, plasma, po, single intragastric 5 mg/kg
Method: The pharmacokinetic assay of the preferred compounds of the examples of the present invention in mice was carried out in Balb/c male mice (Shanghai Jiesijie Laboratory Animal Co., LTD). • Administration mode: single intragastric administration. • Administration dose: 5 mg/10 ml/kg (body weight). • Formulation: the compound was dissolved in 0.5% CMC-Na by ultrasound to obtain a clear solution or homogeneous suspension. • Sampling points: 0.5, 1, 2, 4, 6, 8 and 24 hours after administration. • Sample process: • 1) 0.1 mL of blood was taken from the orbit, placed in a K2-EDTA tube, and centrifuged for 5 to 20 minutes at room temperature at 1000 to 3000×g to separate the plasma, which was then stored at −80° C. • 2) 160 uL of acetonitrile was added to 40 uL of plasma sample for precipitation, and then the mixture was centrifuged for 5 to 20 minutes at 500 to 2000×g. • 3) 100 uL of processed supernatant was taken and analyzed by LC/MS/MS assay to determine the concentration of the test compound. • LC-MS/MS assay: • Liquid chromatography condition: Shimadzu LC-20AD pump • Mass spectrometry condition: AB Sciex API 4000 mass spectrometer • Chromatographic column: phenomenex Gemiu 5 μm C18 50×4.6 mm • Mobile phase: solution A was 0.1% aqueous formic acid solution, and solution B was acetonitrile • Flow rate: 0.8 mL/min • Elution time: 0-4 minutes gradient elution • Pharmacokinetics: […]
The main parameters were calculated using WinNonlin 6.1.

[4] = tested on: PI3Kα mutant cancer cells HCC1954 (H1047R); assay: Cell Titer-Glo proliferation inhibition, HCC1954; format: cell-based; conditions: Homo sapiens, 48 to 96 hours
Method: (§9) Experimental method: The proliferation inhibitory effect of the compounds of the examples on PI3Kα mutant cancer cell lines HCC1954, HGC-27 and MKN1 was determined by Cell Titer-Glo method. The cell lines were cultured in RPMI 1640 medium (Gibco #22400089) containing 10% FBS (Gibco #10091148) and 1% P/S (Hyclone #SV30010) at 37° C. and 5% CO2. Before the experiment, the cells were collected and counted, and then the cell density was adjusted. The cells were inoculated in a white 96-well plate (Corning #3610) at a density of 1000 to 10000 cells/well, and incubated in an incubator at 37° C., 5% CO2 overnight. The compound solution of different concentrations was added, and corresponding vehicle control was set at the same time. The cell plate was further incubated in an incubator at 37° C., 5% CO2 for 48 to 96 hours. The cell plate and its content were equilibrated to room temperature. 20 to 100 μL of Cell Titer-Glo solution (Promega #G7573) was added to each well, and the plate was shaked well and incubated at room temperature in the dark for 5 to 30 minutes. The chemiluminescence value was measured by the BioTek SynergyH1 microplate reader.
(§10) The percentage inhibition data of the well treated by the compounds of the examples was calculated through the vehicle control well on the plate {% inhibition rate=100−(test compound value/vehicle control value)×100}. The IC50 value was calculated by fitting the data of different concentrations and corresponding percentage inhibition rates to a four-parameter nonlinear logic formula with GraphPad prism.

[5] = tested on: PI3Kα mutant cancer cells MKN1 (E545K); assay: Cell Titer-Glo proliferation inhibition, MKN1; format: cell-based; conditions: Homo sapiens, MKN-1, 48 to 96 hours
Method: as §9, §10

[6] = tested on: PI3Kα mutant cancer cells HGC-27 (E542K); assay: Cell Titer-Glo proliferation inhibition, HGC-27; format: cell-based; conditions: Homo sapiens, 48 to 96 hours
Method: as §9, §10

[7] = SD rats, 10, 30 and 60 mg/kg (low, middle, high dose)

## C[C@H](Nc1ccc2c(c1)OCCn1cc(N3C(=O)SC[C@H]3C(F)F)nc1-2)C(N)=O [Example 51, (S)-2-((2-((R)-4-(difluoromethyl)-2-oxothiazolidin-3-yl)-5,6-dihydrobenzo[f]imidazo[1,2-d][1,4]oxazepin-9-yl)amino)propanamide]
PI3Kα
  IC50: 0.2 nM
  Selectivity of PI3Kα vs PI3Kβ: 840
  Selectivity of PI3Kα vs PI3Kγ: 450
  Selectivity of PI3Kα vs PI3Kδ: 245
PI3Kβ
  IC50: 168 nM
PI3Kγ
  IC50: 90 nM
PI3Kδ
  IC50: 49 nM
[1]; SD rats
  main target organs of the toxicity: gastrointestinal tissues (such as stomach and cecum) and immune tissues (such as thymus)
  tolerance compared with GDC-0077: better than that of GDC-0077
[1]; SD rats, 10, 30 and 60 mg/kg
  Blood biochemistry: In 60 mg/kg group, AST, Glu and UREA increased in both male and female animals; in 30 mg/kg group, AST and UREA increased in both male and female animals, and Glu increased in male animals; and in 10 mg/kg group, AST increased in both male and female animals
  Blood cell counting and coagulation function: In each dose group, Retic decreased in both male and female animals; and in 30 mg/kg group and 60 mg/kg group, Neut increased and PLT decreased in both male and female animals
  Pathology, pathological changes under the microscope: bleeding and atrophy of glandular gastric mucosa; bleeding of cecal mucosa, atrophy of goblet cell, atrophy of colonic mucosa goblet cell; atrophy of splenic white pulp; and atrophy of thymic cortex or cortex and medulla, increase in tingible body macrophages and the like
[1]; [7]
  Body weight and food intake: In the low-dose, middle-dose and high-dose groups, the final body weight declined, and the corresponding food intake also declined
  Clinical observation: In the middle-dose and high-dose groups, abnormal symptoms such as arched back, loose stools, perianal contamination and fluffy coat were observed
[1]; SD rats, dose of 60 mg/kg
  Near-death/death: near-dead/dead animals were found
[1]; SD rats, intragastric once/day for 7 days
  lethal dose: 60 mg/kg
[1]; both sexes, Sprague-Dawley, rat, in vivo, po, SD rats, intragastric once/day for 7 days, read-out: maximum tolerated dose (MTD)
  MTD at 7 days: 30 mg/kg
[2]; 30 mg/kg
  Cmax and AUC(0-24h) compared with GDC-0077: significantly higher than those of GDC-0077
[2]; 10 mg/kg intragastric once a day, female
  AUC: 3170 ng·h/mL
[2]; 10 mg/kg intragastric once a day, male
  AUC: 2110 ng·h/mL
[2]; 30 mg/kg intragastric once a day, female
  AUC: 15900 ng·h/mL
[2]; 30 mg/kg intragastric once a day, male
  AUC: 11400 ng·h/mL
[2]; same dose
  system exposure compared with GDC-0077: significantly higher than that of GDC-0077 at the same dose
[3]; read-out: Area under curve AUC0-t
  AUC(0-t): 2180 ng·h/mL
[3]; read-out: Area under curve AUC0-∞
  AUC(0-inf): 2270 ng·h/mL
[3]; read-out: Half-life t1/2(h) (converted)
  half-life: 1.6 h
[3]; read-out: Mean residence time MRT
  MRT: 2.2 h
[3]; read-out: Peak time tmax
  Tmax: 30 min
[3]; read-out: Plasma concentration Cmax
  Cmax: 1060 ng/mL

## C[C@H](Nc1ccc2c(c1)OCCn1cc(N3C(=O)CN(C)C[C@H]3C(F)F)nc1-2)C(N)=O [Example 69, (S)-2-((2-((S)-2-(difluoromethyl)-4-methyl-6-oxopiperazin-1-yl)-5,6-dihydrobenzo[f]imidazo[1,2-d][1,4]oxazepin-9-yl)amino)propanamide]
PI3Kα
  IC50: 2.1 nM
  Selectivity of PI3Kα vs PI3Kβ: 1514
  Selectivity of PI3Kα vs PI3Kγ: 158
  Selectivity of PI3Kα vs PI3Kδ: 68
PI3Kβ
  IC50: 3180 nM
PI3Kγ
  IC50: 332 nM
PI3Kδ
  IC50: 142 nM
[4]
  IC50: 601 nM
[5]
  IC50: 584 nM
[6]
  IC50: 433 nM

## C[C@H](Nc1ccc2c(c1)OCCn1cc(N3C(=O)OC[C@H]3CC#N)nc1-2)C(N)=O [Example 118, (S)-2-((2-((R)-4-(cyanomethyl)-2-oxooxazolidin-3-yl)-5,6-dihydrobenzo[f]imidazo[1,2-d][1,4]oxazepin-9-yl)amino)propanamide]
PI3Kα
  IC50: 1.3 nM
  Selectivity of PI3Kα vs PI3Kβ: 146
  Selectivity of PI3Kα vs PI3Kγ: 57
  Selectivity of PI3Kα vs PI3Kδ: 38
PI3Kβ
  IC50: 190 nM
PI3Kγ
  IC50: 74 nM
PI3Kδ
  IC50: 50 nM
[4]
  IC50: 140 nM
[5]
  IC50: 398 nM
[6]
  IC50: 371 nM
